In PMC7913621 (Molecules, 2021):

How the values were obtained:
normal fibroblasts BJ = experiment: MTT cell viability assay, BJ; format: cell-based, human; conditions: 72 h, median (95% Confidence Intervals)
Procedure: (§1) The following human cell lines were used in this study: (i) epidermoid carcinoma A-431 (ATCC® CRL-1555), (ii) lung carcinoma A549 (ATCC® CCL-185), (iii) colorectal carcinoma HCT116 (ATCC® CCL-247), (iv) HCT116p53^−/−, (v) glioblastoma U-87 MG (ATCC® HTB-14), (vi) glioblastoma U-251 MG (ECACC 09063001), (vii) breast adenocarcinoma MCF7 (ATCC® HTB-22), (viii) breast adenocarcinoma MDA-MB-231 (ECACC 92020424), (ix) papillomavirus-related cervical squamous cell carcinoma SKG-IIIa (RRID:CVCL_1704), (x) cervical adenocarcinoma HeLa (ATCC® CCL-2), (xi) bone osteosarcoma U-2 OS (ATCC® HTB-96), (xii) hepatocellular carcinoma HEPG2 (ATCC® HB-8065), (xiii) larynx squamous cell carcinoma BICR 18 (ECACC 06051601), (ix) kidney HEK 293T (ATCC® CRL-11268), (xv) normal lung fibroblasts MRC-5 (ATCC® CCL-171), (xvi) normal fibroblasts BJ (ATCC® CRL-2522). The HCT116p53^−/− cell line was a kind gift from professor Bert Vogelstein (John Hopkin’s University, Baltimore, MD, USA). The remaining cell lines were purchased from ATCC (Manassas, VA, USA) or Sigma-Aldrich by Merck (Darmstadt, Germany).
(§2) Cells were cultured in minimal or Dulbecco’s modified Eagle’s or Ham’s F10 medium supplemented with 10% fetal bovine serum (Gibco by Thermo Fisher Scientific, Waltham, MA, USA) and (for BICR 18) 0.4 μg/mL hydrocortizone (Sigma-Aldrich by Merck, Darmstadt, Germany) under standard culture conditions (37 °C, 5% CO2) in a humidified incubator with an atmospheric oxygen.
(§3) The viability of cells was assayed by measuring the conversion of MTT (3-(4,5-dimethylthiazol-2-yl)-2,5-diphenyltetrazolium bromide) to the formazan (the rate of this reaction is proportional to the number of surviving cells). Cells were seeded in a 96-well plate at a density of 2500–3500 cells per well, 24 h before treatment. […] MTT stock solution (Sigma-Aldrich) was added at the final concentration 0.5 mg/mL. After 4 h of incubation at 37 °C, water-insoluble formazan was dissolved in a lysis buffer containing 20% SDS, 50% DMF, 2.5% hydrochloric acid and 2.5% acetic acid. Optical densities were measured at 570 nm using a scanning multi-well spectrophotometer ([…] Detection Platform; Beckman Coulter, Brea, CA, USA). At least three independent experiments of viability were conducted.

bone osteosarcoma U-2 OS = experiment: MTT cell viability assay, U-2 OS; format: cell-based, human; conditions: 72 h, median (95% Confidence Intervals)
Procedure: as §1, §2, §3

[1] = test system: colorectal carcinoma HCT116; experiment: MTT cell viability assay, HCT116; format: cell-based, human; conditions: median (95% Confidence Intervals)
Procedure: as §1, §2, §3

[2] = test system: colorectal carcinoma HCT116p53^−/−; experiment: MTT cell viability assay, HCT116p53−/−; format: cell-based, human; conditions: 72 h, median (95% Confidence Intervals)
Procedure: as §1, §2, §3

glioblastoma U-87 MG = experiment: MTT cell viability assay, U-87 MG; format: cell-based, human; conditions: 72 h, median (95% Confidence Intervals)
Procedure: as §1, §2, §3

[3] = test system: hepatocellular carcinoma HEPG2; experiment: MTT cell viability assay, HEPG2; format: cell-based, human; conditions: 72 h, median (95% Confidence Intervals)
Procedure: as §1, §2, §3

[4] = test system: breast adenocarcinoma MCF7; experiment: MTT cell viability assay, MCF7; format: cell-based, human; conditions: 72 h, median (95% Confidence Intervals)
Procedure: as §1, §2, §3

[5] = test system: normal lung fibroblasts MRC-5; experiment: MTT cell viability assay, MRC-5; format: cell-based, human; conditions: MRC-5, MTT, 72 h, median (95% Confidence Intervals)
Procedure: as §1, §2, §3

[6] = test system: larynx squamous cell carcinoma BICR 18; experiment: MTT cell viability assay, BICR 18; format: cell-based, human; conditions: BICR 18, MTT, 72 h, median (95% Confidence Intervals)
Procedure: as §1, §2, §3

glioblastoma U-251 MG = experiment: MTT cell viability assay, U-251 MG; format: cell-based, human; conditions: 72 h, median (95% Confidence Intervals)
Procedure: as §1, with “The remaining cell lines were purchased from ATCC (Manassas, VA, USA) or Sigma-Aldrich by Merck (Darmstadt, Germany).” left out
The viability of cells was assayed by measuring the conversion of MTT (3-(4,5-dimethylthiazol-2-yl)-2,5-diphenyltetrazolium bromide) to the formazan (the rate of this reaction is proportional to the number of surviving cells). […] Optical densities were measured at 570 nm using a scanning multi-well spectrophotometer ([…] Detection Platform; Beckman Coulter, Brea, CA, USA). […]

lung carcinoma A549 = experiment: MTT cell viability assay, A549; format: cell-based, human; conditions: 72 h, median (95% Confidence Intervals)
Procedure: as §1, §2, §3

kidney HEK 293T = experiment: MTT cell viability assay, HEK 293T; format: cell-based, human; conditions: 72 h, median (95% Confidence Intervals)
Procedure: as §1, §2, §3

[7] = test system: cervical squamous cell carcinoma SKG-IIIa; experiment: MTT cell viability assay, SKG-IIIa; format: cell-based, human; conditions: SKGIIIa, 72 h, median (95% Confidence Intervals)
Procedure: as §1, §2, §3

[8] = test system: epidermoid carcinoma A-431; experiment: MTT cell viability assay, A-431; format: cell-based, human; conditions: A-431, MTT, 72 h, median (95% Confidence Intervals)
Procedure: as §1, §2, §3

[9] = test system: cervical adenocarcinoma HeLa; experiment: MTT cell viability assay, HeLa; format: cell-based, human; conditions: 72 h, median (95% Confidence Intervals)
Procedure: as §1, §2, §3

[10] = test system: breast adenocarcinoma MDA-MB-231; experiment: MTT cell viability assay, MDA-MB-231; format: cell-based, human; conditions: MDA-MB-231, MTT, 72 h, median (95% Confidence Intervals)
Procedure: as §1, §2, §3

[11] = molecular target: T1, recombinant human PDE5A/PDE5 protein (Homo sapiens, UniProt O76074); experiment: colorimetric PDE Activity Assay Kit (Abcam), PDE5 inhibition; format: biochemical; conditions: for IC50: 200 μM cGMP, 40 ng enzyme, 20 min at 37 °C, 4% DMSO, read-out: IC50 against human PDE5; for Ki: read-out: Ki against human PDE5
T1 construct: purchased Abcam
Procedure: A high concentration of cGMP substrate was used (200 μM) due to the moderate sensitivity of the aforementioned assay.
The inhibitory effect of the tested compounds was measured using colorimetric PDE Activity Assay Kit (Abcam, Cambridge, UK). This assay allows the quantification of 5′-nucleotide released in the reaction catalyzed by tested phosphodiesterase, PDE5, using the additional enzyme 5′-nucleotidase to cleave the mentioned product, and next, using modified Malachite Green assay, the phosphate is quantified. The assay was carried in a 96-well plate at a volume of 40 μL in an assay buffer, containing 40 ng recombinant human PDE5A/PDE5 protein (Abcam), 200 μM cGMP, 25 kU 5′-nucleotidase and serially diluted ligand to preserve 4% of DMSO. The reaction was initiated with the enzyme and kept going for 20 min at 37 °C. The reaction was stopped by adding 80 μL of Green Assay reagent. After incubation at room temperature for 30 min (to develop color proportional to phosphate content), the absorbance at 620 nm was measured with The SpectraMax iD3 Multi-Mode Microplate Reader (Molecular Devices, San Jose, CA, USA). Inhibitors concentrations varied in the range of 2 pM–200 μM. Each experiment was repeated 4–5 times and IC50 values were calculated by global fitting of the sigmoidal dose response equation implemented in Origin 9.0 package (www.originlab.com). For each experiment, control reaction with no enzyme added and without inhibitor was also performed.

SMILES	IC50 (bone osteosarcoma U-2 OS; Homo sapiens, U2OS) [µM]	IC50 ([1]; Homo sapiens, HCT-116, 72 h) [µM]	IC50 ([2]; Homo sapiens) [µM]	IC50 (glioblastoma U-87 MG; Homo sapiens) [µM]	IC50 ([4]; Homo sapiens) [µM]	IC50 [11] [µM]	Ki [11] [µM]	IC50 (kidney HEK 293T; Homo sapiens) [µM]	IC50 ([7]; Homo sapiens) [µM]	IC50 ([8]; Homo sapiens) [µM]	IC50 ([9]; Homo sapiens) [µM]	IC50 (normal fibroblasts BJ; Homo sapiens, Fibroblast) [µM]	IC50 ([5]; Homo sapiens, MRC5) [µM]	IC50 ([10]; Homo sapiens) [µM]	IC50 ([3]; Homo sapiens) [µM]	IC50 ([6]; Homo sapiens) [µM]	IC50 (lung carcinoma A549; Homo sapiens) [µM]	further results
N.N.[Cl][Pt][Cl] [Cisplatin, cisplatin, reference compound]	–	–	–	–	–	–	–	–	–	–	–	–	–	–	–	–	–	IC50 (normal fibroblasts BJ): 5.58 µM; IC50 (bone osteosarcoma U-2 OS): 7.55 µM; IC50 ([1]; 72 h): 7.44 µM; IC50 [2]: 14.1 µM; IC50 (glioblastoma U-87 MG): 4.96 µM; IC50 [3]: 7.8 µM; IC50 [4]: 11 µM; IC50 [5]: 3.92 µM; IC50 [6]: 1.69 µM; IC50 (glioblastoma U-251 MG): 2.61 µM; IC50 (lung carcinoma A549): 27.2 µM; IC50 (kidney HEK 293T): 6.25 µM; IC50 [7]: 4.84 µM; IC50 [8]: 1.51 µM; IC50 [9]: 13.5 µM; IC50 [10]: 22.3 µM
CN1CC(=O)N(Cc2ccc3c(c2)OCO3)[C@H](Cc2c[nH]c3ccccc23)C1=O [Compound 6a, (R)-3-((1H-indol-3-yl)methyl)-4-(benzo[d][1,3]dioxol-5-ylmethyl)-1-methylpiperazine-2,5-dione]	93.5	102	83.2	153	53.2	137 ± 47	1.4 ± 0.8	10.5	146	104	120	–	–	–	–	–	–	–
CN1CC(=O)N(Cc2ccc3c(c2)OCO3)[C@@H](Cc2c[nH]c3ccccc23)C1=O [Compound 6b, (S)-3-((1H-indol-3-yl)methyl)-4-(benzo[d][1,3]dioxol-5-ylmethyl)-1-methylpiperazine-2,5-dione]	88.3	83.7	143	151	54.1	260 ± 210	2.6 ± 2.7	13	87.6	112	93.5	143	127	128	–	–	–	–
CN1CC(=O)N(Cc2cc3c(cc2Br)OCO3)[C@H](Cc2c[nH]c3ccccc23)C1=O [Compound 7a, (R)-3-((1H-indol-3-yl)methyl)-4-((6-bromobenzo[d][1,3]dioxol-5-yl)methyl)-1-methylpiperazine-2,5-dione]	95.4	53	35.9	110	28.9	22 ± 12	0.22 ± 0.17	12.3	75.9	63.6	79.2	117	116	–	103	137	128	times less effective than tadalafil as PDE5 inhibitor ([11]; compared with tadalafil, human PDE5): over 300
CN1CC(=O)N(Cc2cc3c(cc2Br)OCO3)[C@@H](Cc2c[nH]c3ccccc23)C1=O [Compound 7b, (S)-3-((1H-indol-3-yl)methyl)-4-((6-bromobenzo[d][1,3]dioxol-5-yl)methyl)-1-methylpiperazine-2,5-dione]	88.8	58.7	64.4	99	36.3	39 ± 27	0.39 ± 0.36	13.1	57.3	46.6	78.4	103	96.6	144	124	142	131	–
